Laboratory results taken from patent US20210317140A1, “Heterocyclic Compounds and Methods of Use” (MEDIVATION TECHNOLOGIES, INC, priority 2013, published 2021).

How the values were obtained:
BTK = target: T1, BTK (Homo sapiens, UniProt Q06187); experiment: BTK kinase assay (HotSpot, 33P ATP); format: biochemical; conditions: for IC50: 10 dose IC50, 10 μM ATP; for BTK @ 0.01 μM (% Inh): 0.01 μM compound; for BTK @ 0.01 μM (% Inh) / BTK @ 0.1 μM (% Inh): 10 μM ATP; for BTK @ 0.1 μM (% Inh): 0.1 μM compound
T1 construct: purchased Reaction Biology Corporation
Method in brief: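 In 20 mM Hepes (pH 7.5) with 10 mM MgCl2, 1 mM EGTA, 0.1 mM Na3VO4, 2 mM DTT, 0.02% Brij35, 0.02 mg/mL BSA and 1% DMSO, kinase and substrate were exposed to ten compound doses for 15–20 min.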

BMX/ETK = target: T2, BMX/ETK (Homo sapiens, UniProt P51813); experiment: BMX/ETK kinase profiling (BTK protocol); format: biochemical; conditions: for IC50: 10 dose IC50; for BMX/ETK @ 0.3 μM (% Inh): 0.3 μM compound
T2 construct: purchased Reaction Biology Corporation
T2 sequence (P51813 1-675): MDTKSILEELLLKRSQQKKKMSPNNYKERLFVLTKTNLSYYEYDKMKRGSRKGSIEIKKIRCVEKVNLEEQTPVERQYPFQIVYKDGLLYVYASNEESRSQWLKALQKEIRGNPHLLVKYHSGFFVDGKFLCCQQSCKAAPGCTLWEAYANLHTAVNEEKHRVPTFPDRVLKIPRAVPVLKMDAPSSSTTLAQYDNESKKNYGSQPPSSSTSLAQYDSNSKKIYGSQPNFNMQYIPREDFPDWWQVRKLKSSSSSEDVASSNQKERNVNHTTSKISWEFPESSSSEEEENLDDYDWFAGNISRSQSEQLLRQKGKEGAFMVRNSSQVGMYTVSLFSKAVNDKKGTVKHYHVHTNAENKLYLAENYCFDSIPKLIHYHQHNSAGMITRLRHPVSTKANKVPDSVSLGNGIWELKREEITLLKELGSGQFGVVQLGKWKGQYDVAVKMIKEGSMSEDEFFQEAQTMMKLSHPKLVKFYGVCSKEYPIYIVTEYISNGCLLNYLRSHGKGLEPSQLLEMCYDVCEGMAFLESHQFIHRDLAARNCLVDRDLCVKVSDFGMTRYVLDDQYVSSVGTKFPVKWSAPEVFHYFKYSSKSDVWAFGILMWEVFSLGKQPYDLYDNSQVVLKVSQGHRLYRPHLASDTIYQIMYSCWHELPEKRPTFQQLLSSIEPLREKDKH
Experimental: BTK assay: In vitro profiling protein kinases was performed using the “HotSpot” assay platform. Briefly, specific kinase/substrate pairs along with required cofactors were prepared in reaction buffer. Compounds were prepared as 10 mM stock solutions in DMSO. Compounds were delivered into the reaction, followed 15-20 minutes later by addition of a mixture of ATP (Sigma, St. Louis Mo.) and ^33P ATP (Perkin Elmer, Waltham Mass.) to a final concentration of 10 μM. Reactions were carried out at RT for 120 min, followed by spotting of the reactions onto P81 ion exchange filter paper (Whatman Inc., Piscataway, N.J.). Unbound phosphate was removed by extensive washing of filters in 0.75% Phosphoric acid. […] IC50 values and curve fits were obtained using Prism (GraphPad Software). Buffer Conditions: 20 mM Hepes (pH 7.5), 10 mM MgCl2, 1 mM EGTA, 0.02% Brij35, 0.02 mg/mL BSA, 0.1 mM Na3VO4, 2 mM DTT, 1% DMSO.
Compounds of the invention were profiled in a 10 dose IC50 panel against BMX/ETK, ITK and TEC kinases, provided by Reaction Biology Corporation, applied to the BTK protocol provided in Example B1.

SUDHL6 cells = experiment: Cell anti-proliferation assay ([3H] thymidine); format: cell-based; conditions: Homo sapiens, SU-DHL-6, IC50 range
Experimental: Compounds of the invention were profiled in a B-lymphocyte anti-proliferation assay using SUDHL6 cells. On Day 0, SUDHL cells (7,500) were plated in RPMI media with FBS medium in a 96-well plate. On Day 1, Compounds of the invention were charged on top of the plated cells with a 1% DMSO final concentration. On Day 3, [^3H] Thymidine was added at 100 nCi/well. On Day 4, the cells were harvested using a cell harvester on a GF/C filter mat and dried in a hot air oven. Cell readout was obtained using a scintillation counter, and the activity of the compound was determined as an IC50 value.

T1 sequence (Q06187 whole entry): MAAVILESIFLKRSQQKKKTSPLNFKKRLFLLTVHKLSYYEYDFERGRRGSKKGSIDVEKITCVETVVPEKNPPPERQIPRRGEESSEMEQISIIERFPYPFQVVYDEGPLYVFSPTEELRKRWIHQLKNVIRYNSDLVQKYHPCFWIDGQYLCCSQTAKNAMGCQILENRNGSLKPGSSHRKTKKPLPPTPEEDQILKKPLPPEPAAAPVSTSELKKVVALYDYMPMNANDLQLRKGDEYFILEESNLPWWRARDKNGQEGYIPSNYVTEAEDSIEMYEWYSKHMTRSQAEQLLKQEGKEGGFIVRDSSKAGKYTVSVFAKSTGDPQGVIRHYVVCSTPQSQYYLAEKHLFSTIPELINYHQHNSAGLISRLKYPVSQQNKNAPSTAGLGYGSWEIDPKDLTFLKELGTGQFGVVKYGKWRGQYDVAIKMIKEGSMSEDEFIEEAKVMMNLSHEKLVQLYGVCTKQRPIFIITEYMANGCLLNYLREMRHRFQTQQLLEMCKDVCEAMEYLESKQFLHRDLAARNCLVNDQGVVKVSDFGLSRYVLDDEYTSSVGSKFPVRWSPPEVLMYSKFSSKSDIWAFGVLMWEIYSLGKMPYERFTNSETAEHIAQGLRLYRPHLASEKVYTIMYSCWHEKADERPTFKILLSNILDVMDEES

Work on `Nc1ncnc2c1c(-c1cc(O)cc(F)c1)nn2C1Cc2ccccc2C1` [compound 3, 3-(4-amino-1-(2,3-dihydro-1H-inden-2-yl)-1H-pyrazolo[3,4-d]pyrimidin-3-yl)-5-fluorophenol] yielded an IC50 (BTK) of 67.3 nM, an IC50 (BMX/ETK) of 189 nM and an IC50 (SUDHL6 cells) of 1 to 10 µM.
In the case of `Nc1ncnc2c1c(-c1cc(O)cc(F)c1)nn2C1CCc2ccccc2C1` (stereo not shown) [compound 6, 3-(4-amino-1-(1,2,3,4-tetrahydronaphthalen-2-yl)-1H-pyrazolo[3,4-d]pyrimidin-3-yl)-5-fluorophenol], the IC50 (BTK) is reported as 86.4 nM, the IC50 (BMX/ETK) is reported as 184 nM and the IC50 (SUDHL6 cells) is reported as 1 to 10 µM.
`C=CC(=O)N1CC(n2nc(-c3cc(O)cc(F)c3)c3c(N)ncnc32)Cc2cc(C)ccc21` (single isomer, unassigned) [31b, 1-(3-(4-amino-3-(3-fluoro-5-hydroxyphenyl)-1H-pyrazolo[3,4-d]pyrimidin-1-yl)-6-methyl-3,4-dihydroquinolin-1(2H)-yl)prop-2-en-1-one] was tested, and the “BTK @ 0.01 μM (% Inh)” value (BTK) was 64.36 % Inh, the “BTK @ 0.1 μM (% Inh)” value (BTK) was 93.12 % Inh and the IC50 (BTK) was 12.1 nM. The “BMX/ETK @ 0.3 μM (% Inh)” value (BMX/ETK) was 88.04 % Inh.
`N#Cc1cc(-c2cn(C3Cc4ccccc4C3)c3ncnc(N)c23)cc(O)c1F` [compound 115, 5-[4-amino-7-(2,3-dihydro-1H-inden-2-yl)-7H-pyrrolo[2,3-d]pyrimidin-5-yl]-2-fluoro-3-hydroxybenzonitrile] was tested, and the “BTK @ 0.01 μM (% Inh)” value (BTK) was 12.09 % Inh, the “BTK @ 0.1 μM (% Inh)” value (BTK) was 50.43 % Inh and the IC50 (BTK) was 80.1 nM. For the same compound, the “BMX/ETK @ 0.3 μM (% Inh)” value (BMX/ETK) was 72.12 % Inh.
`Nc1ncnc2c1c(-c1cc(O)c(Cl)c(Cl)c1)cn2C1Cc2ccccc2C1` [Compound No. 107, 5-[4-amino-7-(2,3-dihydro-1H-inden-2-yl)-7H-pyrrolo[2,3-d]pyrimidin-5-yl]-2,3-dichlorophenol] was tested, and the IC50 (BTK) was 8.7 nM and the “BMX/ETK @ 0.3 μM (% Inh)” value (BMX/ETK) was 90.55 % Inh.
